{"source": "PubChem BioAssay AID624322", "about": "(Sanford-Burnham Center for Chemical Genomics, 2012)", "note": "Active and inactive are the calls of the source. How the calls were made is not given here."}
{"biological_target": "Sentrin-specific protease 8 (Homo sapiens) (UniProt Q96LD8)", "sequence (Q96LD8 whole entry, looked up)": "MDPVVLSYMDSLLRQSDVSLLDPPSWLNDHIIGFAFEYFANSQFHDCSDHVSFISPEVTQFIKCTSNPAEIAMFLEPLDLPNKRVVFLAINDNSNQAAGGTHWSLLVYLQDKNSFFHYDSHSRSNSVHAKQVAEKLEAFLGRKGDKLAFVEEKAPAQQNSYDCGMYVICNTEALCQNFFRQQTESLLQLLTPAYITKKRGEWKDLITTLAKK", "test": "potency of human SENP8 inhibitors, dose response, biochemical, Nedd8 protein substrate (AID 624322)", "settings": "recombinant SENP8, Nedd8 substrate cleavage inhibition"}
{"smiles": "O=C(Nc1c(-c2ccccc2)[nH][nH]c1=O)c1cnccn1", "IC50": "42.6 µM"}
{"smiles": "Cn1c(Cc2ccccc2)nnc1SCC(=O)c1cccs1", "IC50": "> 100 µM (inactive)"}
{"smiles": "CCCn1nc([N+](=O)[O-])c(C(C#N)c2nc3ccccc3o2)c(Cl)c1=O", "note": "(stereo unspecified)", "IC50": "> 100 µM (inactive)"}
{"smiles": "O=C(N/N=C/c1ccc([N+](=O)[O-])o1)c1ccccc1-n1cccc1", "IC50": "> 100 µM (inactive)"}
{"smiles": "NC(=O)c1ccc(N=Cc2ccc([N+](=O)[O-])s2)cc1", "IC50": "2.48 µM"}
{"smiles": "O=C(NC1C(=O)NNC1c1ccccc1)c1ccccc1", "note": "(stereo unspecified)", "IC50": "> 100 µM (inactive)"}
{"smiles": "O=[N+]([O-])c1cc(F)c2cccnc2c1O", "IC50": "11.8 µM"}
{"smiles": "O=[N+]([O-])c1ccc(N2CCN(Cc3ccccc3)CC2)c2c1no[n+]2[O-]", "IC50": "17.4 µM"}
{"smiles": "O=C(CCc1ccccc1)c1c(O)cc(O)cc1O", "IC50": "> 100 µM (inactive)"}
{"smiles": "Cc1ccc(S(=O)(=O)N[C@H](C(=O)N2CCC(C(=O)N[C@H](C(=O)O)c3ccccc3)CC2)C(C)C)cc1", "IC50": "> 100 µM (inactive)"}
{"smiles": "O=C(O)CCCCCCCCCCCc1ccccc1", "IC50": "> 100 µM (inactive)"}
{"smiles": "COc1ccc(-n2[nH]c(C)cc2=O)cc1", "IC50": "> 100 µM (inactive)"}
{"smiles": "O=c1[nH]c2ccccc2s1", "IC50": "> 100 µM (inactive)"}
{"smiles": "COc1ccc(O)c(C(c2c(C)[nH][nH]c2=O)c2c(C)[nH][nH]c2=O)c1", "IC50": "7.17 µM"}
{"smiles": "CC1=C(SCCC#N)S/C(=C2\\SC(C)=C(SCCC#N)S2)S1", "IC50": "0.297 µM"}
{"smiles": "O=C(O)c1ccc(Cl)c(S(=O)(=O)NCc2ccco2)c1", "IC50": "> 100 µM (inactive)"}
